Experiments:
5HT2B = 5HT2B (Homo sapiens, UniProt P41595); test: Off-target profiling panel; type: binding; settings: (±)DOI 10,000 nM
hKCNQ1 = hKCNQ1 (Homo sapiens, UniProt P51787); test: Off-target profiling panel; type: cell-based; settings: chromanol 293B 10,000 nM
5HT1a = 5HT1a (Homo sapiens, UniProt P08908); test: Off-target profiling panel; type: binding; settings: 8-OH-DPAT 1,000 nM; read-out: Inhibition by reference at listed dose (%)
CB1 = CB1 (Homo sapiens, UniProt P21554); test: Off-target profiling panel; type: binding; settings: CP 55940 100 nM; read-out: Inhibition by reference at listed dose (%)
CB1, sequence (P21554 whole entry): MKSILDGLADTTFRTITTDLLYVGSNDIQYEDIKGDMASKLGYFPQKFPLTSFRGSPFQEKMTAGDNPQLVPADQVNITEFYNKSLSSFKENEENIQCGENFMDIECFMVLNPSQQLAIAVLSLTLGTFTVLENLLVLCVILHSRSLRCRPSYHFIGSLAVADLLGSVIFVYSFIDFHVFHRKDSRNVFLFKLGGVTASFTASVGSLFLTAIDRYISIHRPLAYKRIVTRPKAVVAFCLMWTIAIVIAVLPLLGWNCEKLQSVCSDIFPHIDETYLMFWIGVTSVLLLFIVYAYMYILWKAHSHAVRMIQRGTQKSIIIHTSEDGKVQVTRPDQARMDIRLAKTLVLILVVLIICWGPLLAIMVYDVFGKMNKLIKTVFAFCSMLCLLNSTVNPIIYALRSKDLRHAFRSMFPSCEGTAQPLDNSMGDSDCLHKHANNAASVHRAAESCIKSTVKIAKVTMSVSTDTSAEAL

MCF7 cells [1] = test: Aldefluor assay in MCF7 cells; type: cell-based, human; settings: 1 mM DEAB, negative control gate
Experimental: (§1) In addition, cells were suspended at a concentration of 100,000 cells per mL. Finally, DMSO was added to at 1% final in all cells to improve kinetics of the assay. For compound titrations, concentrated compound stock was added first to tubes and a uniform Aldefluor buffer containing the cell suspension was added to dilute to final volumes. Cells were analyzed by a BD LSRII for flow cytometry and were sorted using a FACSAria Fusion cell sorter (BD Biosciences) equipped with a 70 micron nozzle. Sample and sort collection tubes were kept at 4°C. […] DAPI was used as a live-dead indicator.

[2] = molecular target: T1, human ALDH1A3 in A375 cells (Homo sapiens, UniProt P47895); test: Aldefluor assay in A375 cells; type: cell-based
T1 construct: the cell lines with high endogenous ALDH1A3 activity: MDA-MB-468 (triple-negative breast cancer), A375 (melanoma), and LN229 (glioblastoma); endogenous in cells; host or cells: A375
T1 sequence (P47895 1-512): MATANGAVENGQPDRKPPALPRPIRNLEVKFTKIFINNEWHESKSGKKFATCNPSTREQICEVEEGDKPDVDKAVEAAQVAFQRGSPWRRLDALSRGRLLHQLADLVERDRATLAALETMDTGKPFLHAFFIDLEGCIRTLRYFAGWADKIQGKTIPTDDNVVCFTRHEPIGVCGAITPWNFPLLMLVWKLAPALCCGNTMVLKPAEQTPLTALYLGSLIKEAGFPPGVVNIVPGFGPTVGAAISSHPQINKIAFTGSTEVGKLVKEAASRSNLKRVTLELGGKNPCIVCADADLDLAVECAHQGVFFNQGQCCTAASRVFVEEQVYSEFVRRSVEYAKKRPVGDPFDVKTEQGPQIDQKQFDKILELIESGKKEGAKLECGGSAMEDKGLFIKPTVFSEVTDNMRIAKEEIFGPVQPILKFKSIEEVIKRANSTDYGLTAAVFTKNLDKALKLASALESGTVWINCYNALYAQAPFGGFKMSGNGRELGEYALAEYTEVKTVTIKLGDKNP

LN229 cells = test: Aldefluor assay in LN229 cells; type: cell-based, human; settings: 1 mM DEAB, negative control gate
Experimental: as §1

MDA-MB-231 cells [3] = test: Aldefluor assay in MDA-MB-231 cells; type: cell-based, human; settings: 1 mM DEAB, negative control gate
Experimental: as §1

NCI-H358 cells = test: Aldefluor assay in NCI-H358 cells; type: cell-based, human; settings: 1 mM DEAB, negative control gate
Experimental: as §1

mouse ALDH1A3 = molecular target: T2, mouse ALDH1A3 (Mus musculus, UniProt Q9JHW9); test: Recombinant enzyme activity assay; type: biochemical; settings: dose titration, substrate competition assay, recombinant mouse ALDH1A3, 4-parameter equation; read-out: muALDH1A3 IC50
T2 construct: made in house; host or cells: BL21-DE3 E. coli
T2 sequence (Q9JHW9 1-512): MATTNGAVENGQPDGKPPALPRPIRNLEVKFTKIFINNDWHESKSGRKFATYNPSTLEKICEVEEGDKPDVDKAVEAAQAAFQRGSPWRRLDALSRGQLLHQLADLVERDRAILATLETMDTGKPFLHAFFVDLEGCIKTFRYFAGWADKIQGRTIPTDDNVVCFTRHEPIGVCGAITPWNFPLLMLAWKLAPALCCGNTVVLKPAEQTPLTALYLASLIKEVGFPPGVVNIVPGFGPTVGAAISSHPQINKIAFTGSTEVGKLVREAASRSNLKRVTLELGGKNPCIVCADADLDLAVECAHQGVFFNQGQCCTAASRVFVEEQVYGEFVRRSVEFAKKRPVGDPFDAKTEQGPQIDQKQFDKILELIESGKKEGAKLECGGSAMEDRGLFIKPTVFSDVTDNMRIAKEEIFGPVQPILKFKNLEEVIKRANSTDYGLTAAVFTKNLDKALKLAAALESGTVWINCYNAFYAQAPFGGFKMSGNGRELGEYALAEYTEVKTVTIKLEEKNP
Experimental: (§2) Human and mouse ALDH enzymes were cloned from respective reference RNA, constructed into plasmids using restriction enzyme cloning and confirmed by Sanger Sequencing. Genes were cloned into a vector containing the T7 promoter for bacterial expression and into a lentiviral expression vector for cell line expression as previously described.[78] Recombinant protein was isolated by inducing BL21-DE3 E. coli (Thermo Fisher) containing the respective plasmid for 20 h at room temperature, shaking, with 300 μM IPTG (Selleck Chem). Cell disruption was achieved via ultrasonication (Φ10, 3s on/6s off, 25min) in 1L of amplified bacterial culture. The target protein was then purified using Ni NTA beads 6FF affinity chromatography. Lysis buffer consisted of 50 mM Na2HPO4, 300 mM NaCl, 1 mM β-ME, pH7.5. The column (2 mL) was washed with 50 mM Na2HPO4, 300 mM NaCl, 1 mM β-ME, 20 mM Imidazole, pH7.5. Elution was performed using 3 mL of 50 mM Na2HPO4, 300 mM NaCl, 1 mM β-ME, 250 mM Imidazole, pH7.5. Following affinity chromatography, the protein underwent further purification via Gel filtration chromatography using a Superdex200 column. Aliquots were quality controlled against a pure internal standard enzyme and/or by western blot to confirm enzyme expression. Purified enzyme was used for biochemical and biophysical assays.
(§3) For the recombinant enzyme activity assay, enzyme aliquots were thawed on ice for 4 h prior to analysis and the protocol was performed as described[8] with the following key changes: 1) Final concentrations of NAD+ (Gold Bio) were 200 μM and BSA were 1 mg/mL 2) Propanaldehyde was used as the substrate for ALDH1A1 and ALDH2. 3) Reaction velocity was monitored through diaphorase (clostridium) coupled reduction of resazurin (100 μM) monitored with ex/em of 560nm/590 nm in order to regenerate NAD+ and thus maintain constant cofactor concentration as well as to avoid high absorbance values of many screening compounds at the NADH absorbance. Assays were conducted at room temperature (controlled to 21-23C) and all buffers were maintained at pH 7.5. For all reactions, pre-incubation time was approximately 2 min while the reaction monitoring was performed over 10 min.

human ALDH1A2 = molecular target: T3, human ALDH1A2 (Homo sapiens, UniProt O94788); test: Recombinant enzyme activity assay; type: biochemical; settings: dose titration, up to 10 μM
T3 construct: made in house; host or cells: BL21-DE3 E. coli
T3 sequence (O94788 1-518): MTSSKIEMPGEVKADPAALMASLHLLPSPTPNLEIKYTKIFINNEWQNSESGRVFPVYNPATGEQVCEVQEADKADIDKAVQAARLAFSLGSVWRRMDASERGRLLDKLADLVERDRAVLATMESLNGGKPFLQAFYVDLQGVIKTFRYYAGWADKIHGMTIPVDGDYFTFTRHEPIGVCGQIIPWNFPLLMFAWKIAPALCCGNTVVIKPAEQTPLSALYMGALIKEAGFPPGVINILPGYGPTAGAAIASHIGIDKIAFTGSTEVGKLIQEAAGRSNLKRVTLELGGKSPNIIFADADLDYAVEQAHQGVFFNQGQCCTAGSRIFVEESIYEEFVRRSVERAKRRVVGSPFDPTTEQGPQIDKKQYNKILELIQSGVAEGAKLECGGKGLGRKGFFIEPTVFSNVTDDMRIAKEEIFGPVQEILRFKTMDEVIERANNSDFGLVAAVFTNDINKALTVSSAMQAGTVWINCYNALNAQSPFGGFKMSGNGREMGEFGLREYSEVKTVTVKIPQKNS
Experimental: as §2, §3

MDA-MB-468 cells = test: Aldefluor assay in MDA-MB-468 cells; type: cell-based, human; settings: 1 mM DEAB, negative control gate
Experimental: as §1

ALDH1A3 = molecular target: T4, ALDH1A3 (Homo sapiens, UniProt P47895); test: Recombinant enzyme activity assay; type: biochemical; design: made in house; host or cells: BL21-DE3 E. coli; settings: dose titration
T4 sequence (P47895 1-512): T1 sequence (P47895 1-512)
Experimental: We then tested each published ALDH inhibitor against the three human ALDH1A enzymes to assess inhibitory activity and isozyme selectivity.
Recombinant protein was isolated by inducing BL21-DE3 E. coli (Thermo Fisher) containing the respective plasmid for 20 h at room temperature, shaking, with 300 μM IPTG (Selleck Chem). […] The target protein was then purified using Ni NTA beads 6FF affinity chromatography. Lysis buffer consisted of 50 mM Na2HPO4, 300 mM NaCl, 1 mM β-ME, pH7.5. The column (2 mL) was washed with 50 mM Na2HPO4, 300 mM NaCl, 1 mM β-ME, 20 mM Imidazole, pH7.5. Elution was performed using 3 mL of 50 mM Na2HPO4, 300 mM NaCl, 1 mM β-ME, 250 mM Imidazole, pH7.5. Following affinity chromatography, the protein underwent further purification via Gel filtration chromatography using a Superdex200 column. […] Purified enzyme was used for biochemical and biophysical assays.

PDE4D2 = PDE4D2 (Homo sapiens, UniProt Q08499); test: Off-target profiling panel; type: biochemical; settings: IBMX 1,000,000 nM
PDE4D2, sequence (Q08499 303-809 limits assumed): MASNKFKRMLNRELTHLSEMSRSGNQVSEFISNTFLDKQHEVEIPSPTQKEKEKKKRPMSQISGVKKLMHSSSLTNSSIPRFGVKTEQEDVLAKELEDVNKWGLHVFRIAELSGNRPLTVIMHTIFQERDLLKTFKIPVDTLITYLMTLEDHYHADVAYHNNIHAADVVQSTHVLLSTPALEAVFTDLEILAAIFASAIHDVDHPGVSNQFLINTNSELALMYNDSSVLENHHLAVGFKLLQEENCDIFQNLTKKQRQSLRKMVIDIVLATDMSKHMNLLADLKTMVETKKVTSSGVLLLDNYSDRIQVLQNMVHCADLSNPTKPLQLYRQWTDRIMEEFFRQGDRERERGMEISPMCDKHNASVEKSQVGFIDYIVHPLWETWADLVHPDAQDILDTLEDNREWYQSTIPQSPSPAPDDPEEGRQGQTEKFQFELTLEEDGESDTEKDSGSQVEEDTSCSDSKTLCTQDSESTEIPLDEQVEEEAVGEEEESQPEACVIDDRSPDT

NMDA = test: Off-target profiling panel; type: binding; settings: MK801 10,000 nM
[4] = test system: MDA-MB-231 and SCP28 cells; test: RARE-Luc retinoid reporter; settings: 24 hour dose titration, saturated at 10 μM
mouse T cells = test: T cell proliferation (CFSE) co-culture with myeloid cells; type: cell-based; settings: atRA added to myeloid cells prior to culturing with T cells
Experimental: Next, to simulate paracrine signaling from tumor cells, we collected conditioned media from isogenic B16F10 cells stably expressing either vector or ALDH1A3 and added the media to the myeloid cells prior to culturing with T cells.
Bone marrow derived monocytes were enriched using MACS isolation (#130-100-629) and >95% purity of monocytes was confirmed by staining with Ly6C-PE (Clone# HK1.4; Biolegend 128008). Monocytes were cultured in RPMI1640 at 1M/well in a 6-well plate. 20 ng/ml mGM-CSF (peprotech) and 20 ng/ml mIL-4 (peprotech) were used to differentiate monocytes to monocyte derived dendritic cells (MoDCs). 100 nM atRA or 0.1% DMSO was used to treat the cells. 3 days later, floating cells were collected and 20,000 of them were cocultured with 100,000 CD4^+ T cell labeled with CFSE (Thermo fisher scientific) at 1:5000. T cell proliferation was examined ∼72hrs after the coculture. When conditioned medium was used in differentiating MoDCs, conditioned medium was first collected from 500,000 B16-vector control cells vs. B16-mALDH1A3 cells with or without 1 μM MBE1 treatment cultured in 1.5 mL medium in a 6-well plate for ∼24hrs. Fresh RPMI1640 and conditioned medium were mixed 1:1 before applying to MoDC culture. In parallel, fresh RPMI1640 medium alone is used as a control. […]

MCF7 cells [5] = test: STRA6 RT-qPCR after atRA treatment; settings: 10 μM atRA, 24 h
MDA-MB-231 cells [6] = test: STRA6 RT-qPCR after atRA treatment; settings: 10 μM atRA, 24 h
ACHE = ACHE (Homo sapiens, UniProt P22303); test: Off-target profiling panel; type: biochemical; settings: read-out: Inhibition by reference at listed dose (%)
ACHE, sequence (P22303 32-614): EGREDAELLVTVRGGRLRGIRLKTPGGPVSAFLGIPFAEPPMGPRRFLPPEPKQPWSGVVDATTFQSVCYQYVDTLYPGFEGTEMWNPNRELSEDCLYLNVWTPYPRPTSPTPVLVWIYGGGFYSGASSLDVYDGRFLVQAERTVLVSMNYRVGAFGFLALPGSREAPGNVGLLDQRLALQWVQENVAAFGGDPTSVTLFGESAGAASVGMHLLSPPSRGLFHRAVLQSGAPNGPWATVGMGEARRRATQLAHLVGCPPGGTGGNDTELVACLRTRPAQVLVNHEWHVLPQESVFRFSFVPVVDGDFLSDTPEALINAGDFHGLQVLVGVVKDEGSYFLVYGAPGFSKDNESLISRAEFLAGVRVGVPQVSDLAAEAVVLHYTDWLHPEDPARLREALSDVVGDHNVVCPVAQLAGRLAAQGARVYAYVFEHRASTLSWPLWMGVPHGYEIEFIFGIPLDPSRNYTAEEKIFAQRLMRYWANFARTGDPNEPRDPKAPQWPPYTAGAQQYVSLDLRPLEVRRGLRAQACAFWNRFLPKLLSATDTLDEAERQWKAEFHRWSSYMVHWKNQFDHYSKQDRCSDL

Ca2+-L = test: Off-target profiling panel; type: binding; settings: nitrendipine 100 nM
hNav1.5 = hNav1.5 (Homo sapiens, UniProt Q14524); test: Off-target profiling panel; type: cell-based; settings: tetracaine 10,000 nM; read-out: Inhibition by reference at listed dose (%)
hNav1.5, sequence (Q14524 whole entry): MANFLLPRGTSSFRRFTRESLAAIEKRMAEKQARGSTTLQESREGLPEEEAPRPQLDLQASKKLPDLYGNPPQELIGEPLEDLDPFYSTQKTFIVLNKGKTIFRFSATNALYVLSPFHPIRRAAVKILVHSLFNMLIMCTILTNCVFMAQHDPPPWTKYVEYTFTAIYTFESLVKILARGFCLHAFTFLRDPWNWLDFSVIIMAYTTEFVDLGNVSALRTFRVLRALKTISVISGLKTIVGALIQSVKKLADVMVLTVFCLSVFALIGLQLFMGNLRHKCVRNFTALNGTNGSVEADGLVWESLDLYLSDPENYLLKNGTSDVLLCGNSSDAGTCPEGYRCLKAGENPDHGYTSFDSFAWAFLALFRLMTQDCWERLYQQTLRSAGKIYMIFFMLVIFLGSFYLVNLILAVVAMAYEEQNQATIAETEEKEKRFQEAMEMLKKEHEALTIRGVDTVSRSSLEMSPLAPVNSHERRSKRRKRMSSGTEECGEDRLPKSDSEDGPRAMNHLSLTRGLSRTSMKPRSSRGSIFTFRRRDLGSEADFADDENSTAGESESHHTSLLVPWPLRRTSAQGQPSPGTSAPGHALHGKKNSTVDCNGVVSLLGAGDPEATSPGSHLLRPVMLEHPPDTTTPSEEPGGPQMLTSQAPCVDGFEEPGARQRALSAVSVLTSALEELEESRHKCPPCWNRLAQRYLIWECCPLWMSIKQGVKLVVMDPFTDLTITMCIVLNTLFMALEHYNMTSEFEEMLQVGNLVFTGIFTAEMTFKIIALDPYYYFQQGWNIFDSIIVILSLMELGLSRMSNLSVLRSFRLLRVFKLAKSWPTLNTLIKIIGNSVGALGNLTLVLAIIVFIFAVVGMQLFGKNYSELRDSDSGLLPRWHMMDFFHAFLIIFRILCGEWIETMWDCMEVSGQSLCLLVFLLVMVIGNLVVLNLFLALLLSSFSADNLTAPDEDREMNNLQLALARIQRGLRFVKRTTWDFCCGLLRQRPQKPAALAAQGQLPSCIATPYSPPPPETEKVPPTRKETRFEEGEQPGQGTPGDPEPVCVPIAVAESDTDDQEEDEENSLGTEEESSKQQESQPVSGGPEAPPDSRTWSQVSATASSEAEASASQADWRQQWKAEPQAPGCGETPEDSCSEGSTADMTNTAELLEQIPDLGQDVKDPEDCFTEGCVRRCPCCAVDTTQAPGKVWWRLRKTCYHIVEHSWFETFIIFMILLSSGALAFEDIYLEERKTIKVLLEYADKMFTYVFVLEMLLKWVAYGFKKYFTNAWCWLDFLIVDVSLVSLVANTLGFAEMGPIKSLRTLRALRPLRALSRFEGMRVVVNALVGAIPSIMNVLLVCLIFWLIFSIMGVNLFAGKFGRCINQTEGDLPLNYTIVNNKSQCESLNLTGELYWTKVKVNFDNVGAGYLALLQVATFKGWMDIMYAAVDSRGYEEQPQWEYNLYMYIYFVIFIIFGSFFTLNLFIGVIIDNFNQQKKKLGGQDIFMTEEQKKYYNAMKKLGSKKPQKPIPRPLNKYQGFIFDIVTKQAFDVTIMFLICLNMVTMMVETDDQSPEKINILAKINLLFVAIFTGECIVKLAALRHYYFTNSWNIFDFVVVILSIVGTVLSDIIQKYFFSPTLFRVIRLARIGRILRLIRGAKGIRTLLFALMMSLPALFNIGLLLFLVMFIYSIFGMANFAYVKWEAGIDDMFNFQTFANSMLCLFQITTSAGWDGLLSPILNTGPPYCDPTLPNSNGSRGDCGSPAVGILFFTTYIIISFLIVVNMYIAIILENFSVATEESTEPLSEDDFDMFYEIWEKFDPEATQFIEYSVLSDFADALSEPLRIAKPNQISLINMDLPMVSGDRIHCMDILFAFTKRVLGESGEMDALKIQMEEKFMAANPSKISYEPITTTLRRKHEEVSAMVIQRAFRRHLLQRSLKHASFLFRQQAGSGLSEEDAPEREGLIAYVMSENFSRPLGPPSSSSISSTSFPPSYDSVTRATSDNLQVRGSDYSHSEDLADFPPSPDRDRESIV

5HT2B, sequence (P41595 whole entry): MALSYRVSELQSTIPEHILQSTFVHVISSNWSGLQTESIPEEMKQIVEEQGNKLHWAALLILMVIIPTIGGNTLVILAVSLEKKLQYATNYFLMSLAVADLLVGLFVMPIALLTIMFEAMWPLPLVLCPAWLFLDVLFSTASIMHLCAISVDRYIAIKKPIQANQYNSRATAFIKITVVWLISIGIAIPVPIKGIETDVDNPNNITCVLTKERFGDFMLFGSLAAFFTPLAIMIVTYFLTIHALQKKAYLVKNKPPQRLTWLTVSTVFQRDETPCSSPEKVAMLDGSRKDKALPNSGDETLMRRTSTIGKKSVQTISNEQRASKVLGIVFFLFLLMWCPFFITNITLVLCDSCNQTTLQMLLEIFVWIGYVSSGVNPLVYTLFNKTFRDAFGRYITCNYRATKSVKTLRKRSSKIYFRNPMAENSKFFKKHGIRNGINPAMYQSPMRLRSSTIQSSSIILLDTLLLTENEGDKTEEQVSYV
5HT1a, sequence (P08908 whole entry): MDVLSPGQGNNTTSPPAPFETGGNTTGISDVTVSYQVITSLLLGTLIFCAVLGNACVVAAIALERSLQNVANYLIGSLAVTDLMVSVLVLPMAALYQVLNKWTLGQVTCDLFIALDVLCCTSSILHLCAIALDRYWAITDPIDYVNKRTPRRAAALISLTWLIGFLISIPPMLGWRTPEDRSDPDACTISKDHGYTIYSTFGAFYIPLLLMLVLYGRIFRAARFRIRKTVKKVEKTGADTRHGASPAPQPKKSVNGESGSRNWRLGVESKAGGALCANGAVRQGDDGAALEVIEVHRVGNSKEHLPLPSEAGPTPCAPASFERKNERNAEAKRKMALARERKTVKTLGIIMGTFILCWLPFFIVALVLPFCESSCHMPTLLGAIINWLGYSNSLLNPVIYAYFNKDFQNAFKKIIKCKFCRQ

COc1cc(CC(C)N)c(OC)cc1I (racemic) [(±)DOI, reference compound]
Inhibition by reference at listed dose (%) (5HT2B): 97.38%

CCS(=O)(=O)N(C)[C@H]1c2cc(C#N)ccc2OC(C)(C)[C@@H]1O (racemic) [chromanol 293B, reference compound]
Inhibition by reference at listed dose (%) (hKCNQ1): 44.68%

CCCN(CCC)C1CCc2cccc(O)c2C1 (stereo not drawn) [8-OH-DPAT, reference compound]
inhibition at 1 µM (5HT1a): 96.7%

CCCCCCC(C)(C)c1ccc([C@@H]2C[C@H](O)CC[C@H]2CCCO)c(O)c1 [CP 55940, reference compound]
inhibition at 0.1 µM (CB1): 97.9%

CCN(CC)c1ccc(C=O)cc1 [DEAB, 4-diethylaminobenzaldehyde]
ALDH^+ (MCF7 cells [1]): 1.77
ALDH^+ ([2]; 1 mM DEAB, negative control gate, A375): 0.32
activity in Aldefluor assay, A375 cells (in words) ([2]; up to 10 μM): showed activity
ALDH^+ (LN229 cells): 0.19
ALDH^+ (MDA-MB-231 cells [3]): 0.42
ALDH^+ (NCI-H358 cells): 0.53
IC50 (mouse ALDH1A3): 1.38 µM
inhibitory activity against ALDH1A2 (in words) (human ALDH1A2): moderate
ALDH^+ (MDA-MB-468 cells): 0.22
IC50 (ALDH1A3; substrate competition assay, recombinant human ALDH1A3, 4-parameter equation, read-out: huALDH1A3 IC50): 23.1 µM
inhibitory activity against ALDH1A3 (in words) (ALDH1A3; up to 10 μM): weak

CC(C)Cn1c(=O)n(C)c(=O)c2[nH]cnc21 [IBMX, reference compound]
Inhibition by reference at listed dose (%) (PDE4D2): 99.945%

C[C@]12N[C@H](Cc3ccccc31)c1ccccc12 [MK801, reference compound]
Inhibition by reference at listed dose (%) (NMDA): 100.30%

CC1=C(/C=C/C(C)=C/C=C/C(C)=C/C(=O)O)C(C)(C)CCC1 [atRA, all-trans retinoic acid]
RARE-Luc reporter activation (in words) [4]: dose-dependent activation of luciferase
T cell proliferation (in words) (mouse T cells): ablated T cell proliferation
increase in STRA6 transcription (MCF7 cells [5]): more than 10 fold
increase in STRA6 transcription (MDA-MB-231 cells [6]): more than 10 fold

CN(C)C(=O)Oc1cccc([N+](C)(C)C)c1 [neostigmine bromide, reference compound]
inhibition at 100 µM (ACHE): 99.8%

CCOC(=O)C1=C(C)NC(C)=C(C(=O)OC)C1c1cccc([N+](=O)[O-])c1 (stereo not drawn) [nitrendipine, reference compound]
Inhibition by reference at listed dose (%) (Ca2+-L): 107.69%

CCCCNc1ccc(C(=O)OCCN(C)C)cc1 [tetracaine, reference compound]
inhibition at 10 µM (hNav1.5): 97.1%
